Measured values published in patent publication US9504729B2, “Antiangiogenic small molecules and methods of use” (The United States of America, as represented by the …, priority 2009, dated 2016).

System: angiogenesis genes in dermal microvascular endothelial cells
Assay: Real time RT-PCR of angiogenesis gene expression during endothelial tube formation
Assay type: cell-based
Conditions: 1 μM SM, 24 hours
Experimental: For gene expression studies, three independent experiments were run for each SM tested. 90.000 cells/well (6 wells/treatment) of dermal microvascular endothelial cells (Lonza, Walkersville, Md.) were seeded on polymerized GELTREX™ gel matrix (Invitrogen, Carlsbad, Calif.) in 24 well plates. Wells were immediately treated with the same volume of 1 μM SM or PBS. After 24 hours incubation at 37° C. and 5% CO2, cells were extracted using Cell Recovery Solution (BD Biosciences, San Jose, Calif., Cat. #354253). Total RNA was extracted with the RNeasy Mini Kit (Qiagen, Valencia, Calif., Cat. #74104), and retrotranscribed using […]® First-Strand reverse transcriptase (Invitrogen, Carlsbad, Calif., Cat. #11904-018). The real time PCR reactions were performed in an Opticon 2 cycler (MJ Research, Waltham, Mass.). Amplification was performed in a final volume of 25 μl, containing 2 μl cDNA (1:10 dilution from the reversed transcribed reaction) and 2 μl of primer mixture (10 μM each of forward and reverse primers). Samples were amplified as follows: after initial denaturation at 95 C for 2 minutes, reactions were run for 46 cycles at 95° C. for 30 seconds, 60° C. for 30 seconds, and 72° C. for 45 seconds. Fluorescence was measured in every cycle and a melting curve was run after the PCR by increasing temperature from 50 to 96° C. (in 0.5° C. increments). A defined single peak was obtained for all amplicons, thus confirming the specificity of the amplification.
The genes that were monitored were selected based on their relevance to the angiogenesis process. All experiments were done in triplicate. The results are shown in the volcano plots of FIG. 17. Log 2 fold-change is presented in the X-axis and log 10 P value in the Y-axis.

CCC(=O)OCN1C(=O)C=CC1=O [compound 19630]
Log2 fold-change of gene expression: 1839: −1.2 | Log2 fold-change of gene expression: 4247: 1.0 | Log2 fold-change of gene expression: 5569: −3.0 | Log2 fold-change of gene expression: 8131: 0.6 | Log2 fold-change of gene expression: 9569: −2.3 | Log2 fold-change of gene expression: 10988: 2.5 | Log2 fold-change of gene expression: 23001: 0.4 | Log2 fold-change of gene expression: 55332: −1.1 | Log2 fold-change of gene expression: 57722: 0.2 | Log2 fold-change of gene expression: 58488: 1.2 | Log2 fold-change of gene expression: 90780: −1.2 | Log2 fold-change of gene expression: 134265: −1.6 | Log2 fold-change of gene expression: AKT1: 0.1 | Log2 fold-change of gene expression: ANGPT1: −0.5 | Log2 fold-change of gene expression: ANGPT2: −1.8 | Log2 fold-change of gene expression: ANGPTL3: −5.0 | Log2 fold-change of gene expression: ANGPTL4: −0.2 | Log2 fold-change of gene expression: ANPEP: −0.4 | Log2 fold-change of gene expression: ANTXR1: −0.3 | Log2 fold-change of gene expression: APOE: 3.3 | Log2 fold-change of gene expression: ARHGEF1: 0.2 | Log2 fold-change of gene expression: Acvrl1: −0.6 | Log2 fold-change of gene expression: Adcy4: 0.0 | Log2 fold-change of gene expression: BAL1: −0.9 | Log2 fold-change of gene expression: BMP1: 0.5 | Log2 fold-change of gene expression: C1orf54: −4.8 | Log2 fold-change of gene expression: CALD1: 1.7 | Log2 fold-change of gene expression: CCL2: 2.3 | Log2 fold-change of gene expression: CCL11: −0.3 | Log2 fold-change of gene expression: CD248: 1.3 | Log2 fold-change of gene expression: CDH5: −0.2 | Log2 fold-change of gene expression: CENTD3: 0.6 | Log2 fold-change of gene expression: CLIC1: −0.1 | Log2 fold-change of gene expression: COL4A3: 0.1 | Log2 fold-change of gene expression: COL18A1: 0.4 | Log2 fold-change of gene expression: COMT: −0.7 | Log2 fold-change of gene expression: CST4: 0.8 | Log2 fold-change of gene expression: CTTNBP2NL: −2.3 | Log2 fold-change of gene expression: CXCL3: 12.1 | Log2 fold-change of gene expression: CXCL5: 4.8 | Log2 fold-change of gene expression: CXCL6: −0.5 | Log2 fold-change of gene expression: CXCL9: −1.0 | Log2 fold-change of gene expression: CXCL10: 4.7 | Log2 fold-change of gene expression: Calcr1: −4.3 | Log2 fold-change of gene expression: Caskin2: −2.8 | Log2 fold-change of gene expression: Ccbp2: −0.1 | Log2 fold-change of gene expression: Cldn5: 0.6 | Log2 fold-change of gene expression: DGKG: 5.4 | Log2 fold-change of gene expression: DKK3: −1.5 | Log2 fold-change of gene expression: DLL4: −4.5 | Log2 fold-change of gene expression: DUT: −0.8 | Log2 fold-change of gene expression: EFNA1: 3.7 | Log2 fold-change of gene expression: EFNA3: −0.4 | Log2 fold-change of gene expression: EFNB2: −1.9 | Log2 fold-change of gene expression: EGF: −1.0 | Log2 fold-change of gene expression: ENG: 0.1 | Log2 fold-change of gene expression: EPHB4: −0.8 | Log2 fold-change of gene expression: EREG: 7.6 | Log2 fold-change of gene expression: ESAM1: −3.3 | Log2 fold-change of gene expression: EXTL3: 1.0 | Log2 fold-change of gene expression: Egf17: −3.8 | Log2 fold-change of gene expression: Ehd4: −1.1 | Log2 fold-change of gene expression: Entpd1: −4.9 | Log2 fold-change of gene expression: Epas1: 1.8 | Log2 fold-change of gene expression: EphB1: 0.0 | Log2 fold-change of gene expression: Erg: −1.6 | Log2 fold-change of gene expression: FGF1: −3.0 | Log2 fold-change of gene expression: FGF2: 1.7 | Log2 fold-change of gene expression: FGFR3: −0.2 | Log2 fold-change of gene expression: FIGF: −3.2 | Log2 fold-change of gene expression: FLT1: −2.1 | Log2 fold-change of gene expression: Fgd5: −1.6 | Log2 fold-change of gene expression: GPCR124: −1.7 | Log2 fold-change of gene expression: GRRP1: 0.0 | Log2 fold-change of gene expression: Grp116: −1.9 | Log2 fold-change of gene expression: HAND2: −0.5 | Log2 fold-change of gene expression: HGF: −0.3 | Log2 fold-change of gene expression: HIF1A: −1.7 | Log2 fold-change of gene expression: HPSE: 0.6 | Log2 fold-change of gene expression: Hspa12b: −4.6 | Log2 fold-change of gene expression: ID1: 1.0 | Log2 fold-change of gene expression: ID3: 0.4 | Log2 fold-change of gene expression: IFNA1: 0.4 | Log2 fold-change of gene expression: IFNB1: −0.4 | Log2 fold-change of gene expression: IFNG: 4.7 | Log2 fold-change of gene expression: IGF1: 3.6 | Log2 fold-change of gene expression: IL1B: 0.2 | Log2 fold-change of gene expression: IL6: 3.5 | Log2 fold-change of gene expression: IL8: 3.0 | Log2 fold-change of gene expression: ITGAV: −0.3 | Log2 fold-change of gene expression: ITGB3: −0.9 | Log2 fold-change of gene expression: Icam1: 0.1 | Log2 fold-change of gene expression: Icam2: 0.4 | Log2 fold-change of gene expression: JAG1: −1.2 | Log2 fold-change of gene expression: KDR: −2.7 | Log2 fold-change of gene expression: Kifc1: 3.4 | Log2 fold-change of gene expression: LAMAS5: −0.8 | Log2 fold-change of gene expression: LECT1: −0.4 | Log2 fold-change of gene expression: LEP: −4.5 | Log2 fold-change of gene expression: Lasts2: −0.1 | Log2 fold-change of gene expression: Lrrk1: −2.9 | Log2 fold-change of gene expression: MDK: −1.1 | Log2 fold-change of gene expression: MMP2: 0.5 | Log2 fold-change of gene expression: MMP9: 0.3 | Log2 fold-change of gene expression: MMP11: 0.8 | Log2 fold-change of gene expression: MRC2: 1.6 | Log2 fold-change of gene expression: Mmm2: −2.4 | Log2 fold-change of gene expression: Myo1b: −2.3 | Log2 fold-change of gene expression: NID1: −2.6 | Log2 fold-change of gene expression: NM023516: 0.5 | Log2 fold-change of gene expression: NRP1: −0.5 | Log2 fold-change of gene expression: NRP2: −2.2 | Log2 fold-change of gene expression: Notch4: −1.8 | Log2 fold-change of gene expression: Npr3: 8.3 | Log2 fold-change of gene expression: PALD: −1.1 | Log2 fold-change of gene expression: PDCD2: 0.5 | Log2 fold-change of gene expression: PDGFA: −0.7 | Log2 fold-change of gene expression: PECAM1: −2.6 | Log2 fold-change of gene expression: PGF: −2.4 | Log2 fold-change of gene expression: PLAU: 0.1 | Log2 fold-change of gene expression: PLG: −2.7 | Log2 fold-change of gene expression: PNMT: 0.7 | Log2 fold-change of gene expression: PROK2: −1.3 | Log2 fold-change of gene expression: PTGS1: −2.4 | Log2 fold-change of gene expression: PTPRCAP: 0.4 | Log2 fold-change of gene expression: Pltp: 0.9 | Log2 fold-change of gene expression: Ptprb: −1.6 | Log2 fold-change of gene expression: Ptprm: −1.2 | Log2 fold-change of gene expression: RAMP2: −4.8 | Log2 fold-change of gene expression: RASD2: 0.9 | Log2 fold-change of gene expression: Rasip1: 3.1 | Log2 fold-change of gene expression: S1PR1: −2.6 | Log2 fold-change of gene expression: SERPINF1: −0.8 | Log2 fold-change of gene expression: SPHK1: −0.5 | Log2 fold-change of gene expression: STAB1: −1.0 | Log2 fold-change of gene expression: Sdc4: 2.2 | Log2 fold-change of gene expression: Sdpr: −0.1 | Log2 fold-change of gene expression: Slc43a3: −0.8 | Log2 fold-change of gene expression: Slco2a1: −2.5 | Log2 fold-change of gene expression: TEK: −0.4 | Log2 fold-change of gene expression: TGFA: 1.1 | Log2 fold-change of gene expression: TGFB1: −1.3 | Log2 fold-change of gene expression: TGFB2: −0.5 | Log2 fold-change of gene expression: TGFBR1: −0.1 | Log2 fold-change of gene expression: THBS1: 0.5 | Log2 fold-change of gene expression: THBS2: −0.6 | Log2 fold-change of gene expression: THY1: −11.3 | Log2 fold-change of gene expression: TIMP1: −0.8 | Log2 fold-change of gene expression: TIMP2: −0.9 | Log2 fold-change of gene expression: TIMP3: 0.7 | Log2 fold-change of gene expression: TNF: −0.6 | Log2 fold-change of gene expression: TNS1: 0.6 | Log2 fold-change of gene expression: TNS3: −1.8 | Log2 fold-change of gene expression: TRA2B: 1.5 | Log2 fold-change of gene expression: TYMP: 0.3 | Log2 fold-change of gene expression: VEGFA: 4.2 | Log2 fold-change of gene expression: VEGFC: 0.1 | Log2 fold-change of gene expression: VGLL4: −1.3 | Log2 fold-change of gene expression: Vwf: −1.8 | Log2 fold-change of gene expression: copa: 0.4 | Log2 fold-change of gene expression: itbp4: −0.8 | Log2 fold-change of gene expression: ralb: 0.1 | Log2 fold-change of gene expression: stard9: −0.7 | Log2 fold-change of gene expression: B2M (1st listing (r49)): 0.0 | Log2 fold-change of gene expression: HPRT1 (1st listing (r50)): 0.8 | Log2 fold-change of gene expression: RPL13A (1st listing (r51)): −0.2 | Log2 fold-change of gene expression: GADPH (1st listing (r52)): 0.1 | Log2 fold-change of gene expression: ACTB (1st listing (r53)): 0.1 | Log2 fold-change of gene expression: PLXDC1 (1st listing (r74)): −4.0 | Log2 fold-change of gene expression: TNFAIP2 (1st listing (r91)): 0.2 | Log2 fold-change of gene expression: Robo4 (1st listing (r95)): 0.1 | Log2 fold-change of gene expression: 151516 (1st listing (r134)): 1.2 | Log2 fold-change of gene expression: TNFAIP2 (2nd listing (r92)): −0.4 | Log2 fold-change of gene expression: B2M (2nd listing (r97)): −0.1 | Log2 fold-change of gene expression: HPRT1 (2nd listing (r98)): 0.9 | Log2 fold-change of gene expression: RPL13A (2nd listing (r99)): 0.3 | Log2 fold-change of gene expression: GADPH (2nd listing (r100)): −0.3 | Log2 fold-change of gene expression: ACTB (2nd listing (r101)): −0.3 | Log2 fold-change of gene expression: PLXDC1 (2nd listing (r104)): −5.7 | Log2 fold-change of gene expression: 151516 (2nd listing (r139)): 0.9 | Log2 fold-change of gene expression: Robo4 (2nd listing (r188)): 0.3 | Log2 fold-change of gene expression: B2M (3rd listing (r145)): −1.4 | Log2 fold-change of gene expression: HPRT1 (3rd listing (r146)): 0.2 | Log2 fold-change of gene expression: RPL13A (3rd listing (r147)): 1.0 | Log2 fold-change of gene expression: GADPH (3rd listing (r148)): 0.1 | Log2 fold-change of gene expression: ACTB (3rd listing (r149)): −0.9 | Log2 fold-change of gene expression: B2M (4th listing (r193)): −0.9 | Log2 fold-change of gene expression: HPRT1 (4th listing (r194)): 2.0 | Log2 fold-change of gene expression: RPL13A (4th listing (r195)): 0.4 | Log2 fold-change of gene expression: GADPH (4th listing (r196)): −1.6 | Log2 fold-change of gene expression: ACTB (4th listing (r197)): −1.6
